#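 Compound exposure: 48 hours, 5 concentrations, 96-well plates. TGI denotes the concentration required for complete inhibition of growth.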
# Key:
# Assay in all cases: growth of human tumour cells (NCI), 48 h
# ACHN renal = tested on: ACHN renal
# MOLT-4 leukemia = tested on: MOLT-4 leukemia
# CCRF-CEM leukemia = tested on: CCRF-CEM leukemia
# T-47D breast = tested on: T-47D breast
# MDA-N = tested on: MDA-N
# U251 CNS = tested on: U251 CNS
# SF-539 CNS = tested on: SF-539 CNS
# HOP-92 NSCLC = tested on: HOP-92 NSCLC
# RXF 393 renal = tested on: RXF 393 renal
# SF-268 CNS = tested on: SF-268 CNS
# SK-OV-3 ovarian = tested on: SK-OV-3 ovarian
SMILES,TGI (ACHN renal) [µM],TGI (MOLT-4 leukemia) [µM],TGI (CCRF-CEM leukemia) [µM],TGI (T-47D breast) [µM],TGI (MDA-N) [µM],TGI (U251 CNS) [µM],TGI (SF-539 CNS) [µM],TGI (HOP-92 NSCLC) [µM],TGI (RXF 393 renal) [µM],TGI (SF-268 CNS) [µM],TGI (SK-OV-3 ovarian) [µM]
Cc1ccc(S(=O)(=O)N2CCN(CCO)CCN(S(=O)(=O)c3ccc(C)cc3)CCN(CCO)CC2)cc1,90.9,57.1,54,36.2,93.6,72.3,33.4,66,82.1,> 100,–
C=C(C(=O)OC)[C@H]1CC/C(C)=C/CC/C(C)=C/CC[C@@]2(C)O[C@@H]2C1,34.5,35.5,30,44.7,36.4,44,32.2,35.1,28.8,–,> 100
COC(=O)C(C(=O)OC)C1CC(=O)c2c(Br)sc(Br)c21 (centres undefined),26.6,18.7,15.4,> 100,> 100,29.8,42.6,35,84.4,52.8,44
COc1ccc(C2NC(=O)Nc3c2c(=O)oc2c3ccc3ccccc32)cc1 (centres undefined),> 100,> 100,> 100,> 100,> 100,> 100,> 100,> 100,> 100,> 100,> 100
S=C(Nc1ccc2c(c1)Cc1ccccc1-2)Nc1ccc2c(c1)Cc1ccccc1-2,> 100,39.5,27.2,> 100,> 100,> 100,–,> 100,> 100,> 100,> 100
O=c1oc2ccccc2c(O)c1Cc1cccc(Cc2c(O)c3ccccc3oc2=O)c1,> 100,> 100,> 100,> 100,> 100,> 100,> 100,> 100,> 100,> 100,> 100
COc1ccc(NC(=S)NNC(=O)c2cc(-c3ccccc3)nc3ccccc23)cc1,87.3,59.2,34.8,59.7,15.5,38.5,27.2,31.9,44.6,90.1,15.9
CSc1ccccc1P(CCP(c1ccccc1SC)c1ccccc1SC)c1ccccc1SC,> 100,> 100,29.6,> 100,> 100,> 100,> 79.1,> 100,> 84.9,> 100,> 55.4
Cc1nnc(CC#N)n1NC(=O)CC#N,> 100,> 100,> 100,> 100,> 100,> 100,> 100,> 100,> 100,> 100,> 100
CC1(O)C(=O)OC2CC([C@]3(O)CCC4[C@@H]5C[C@H]6O[C@]67[C@@H](O)C=CC(=O)[C@]7(C)C5CC[C@@]43C)C1(C)C2 (some centres undefined),73.8,31.6,9.54,18.5,17.9,> 72.6,44.5,10.9,13.2,> 92,> 100
CSC1NNC2(C(=O)N1)c1ccccc1-c1ccccc12 (centres undefined),> 10,> 10,> 10,> 10,> 10,–,> 10,> 10,> 10,> 10,> 10
C/C(=C\CNc1nc(Cl)nc2nc[nH]c12)CO,> 100,> 100,> 100,> 100,> 100,–,> 100,> 100,> 100,> 100,> 100
CCCCCCCCC[n+]1cccc(C2C(C(=O)OCC)=C(C)NC(C)=C2C(=O)OCC)c1,28.5,19.2,6.85,20.3,4.39,12.6,15.6,6.52,5.94,16.9,26.5
c1ccc2c(c1)c1c3n2-c2cc(on2)C3CCC1 (centres undefined),> 100,> 100,> 100,> 100,> 100,> 100,> 100,> 100,> 100,> 100,> 100
Nc1ccc(-c2nc3ccccc3s2)cc1,31.8,70.3,54.4,65.5,35.2,31.9,45.1,31.9,33.5,31.4,> 100
COc1cc2c(cc1O)CC[C@@H]1C2CC[C@@]2(C)C1CC[C@@H]2O (some centres undefined),> 100,32.1,22.3,> 100,0.574,> 62.4,4.2,> 97.9,57.6,> 100,> 100
Cc1nn(-c2ccccn2)c2c1C(SC#N)=C(C=O)CC2,29.8,6.95,6.43,20.3,38.6,28.8,36.1,34.5,17.6,33,61.5
COC1=CC(=O)c2c(cc(COP(=O)(N(C)CCBr)N(C)CCBr)n2C)C1=O,0.492,> 100,19,33,2.77,8.43,0.339,7.54,1.95,> 38.2,8.3

SMILES,TGI (ACHN renal) [µM],TGI (MOLT-4 leukemia) [µM],TGI (CCRF-CEM leukemia) [µM],TGI (T-47D breast) [µM],TGI (MDA-N) [µM],TGI (U251 CNS) [µM],TGI (SF-539 CNS) [µM],TGI (HOP-92 NSCLC) [µM],TGI (RXF 393 renal) [µM],TGI (SF-268 CNS) [µM],TGI (SK-OV-3 ovarian) [µM]
C=CCn1c(=O)c2ccccc2[n+]2c(-c3cccc([N+](=O)[O-])c3)csc12,> 100,> 100,> 100,72.8,> 100,> 100,> 100,> 100,> 100,> 100,> 100
Cc1nnc2sc(-c3ccc([N+](=O)[O-])o3)nn12,23.2,13.5,> 100,62.7,19.4,27.9,18.2,35.2,25.9,27,32.7
COC(=O)C[C@H](CCSC)NC(=O)C[C@H](CCSC)NC(=O)C[C@H](CCSC)NC(=O)OC(C)(C)C,> 100,> 100,> 100,> 100,> 100,56,54.1,36.9,33.6,59.2,40
C[C@@H]1OCC(O)C([C@H]2OC(c3ccccc3)=N[C@H]2CO)O1 (some centres undefined),> 100,> 100,> 100,> 100,> 100,> 100,> 100,> 100,> 100,> 100,> 100
C/C(=C\c1ccccc1)C(=O)NCc1ccc(C(=O)NCCc2c[nH]c3ccccc23)cc1,> 100,> 100,> 100,> 100,> 100,> 100,> 100,> 100,> 100,> 100,> 100
Cn1c(=O)c2sc3cc4c(cc3c2c2ccccc21)sc1c(=O)n(C)c2ccccc2c14,54.8,> 100,> 100,> 100,> 100,43.6,> 100,99.1,45,> 100,> 100
O=c1/c(=C/c2ccc(-c3ccc(Cl)cc3Cl)o2)sc2n1[C@@H](c1ccc3c(c1)OCO3)C=C(c1cc(F)c(Cl)cc1Cl)N=2,> 100,> 100,> 100,> 100,> 100,> 100,> 100,95.5,> 100,> 100,62.1
COC(=O)c1c(C#C[Si](C)(C)C)c(C#C[Si](C)(C)C)c(C#C[Si](C)(C)C)c(C#C[Si](C)(C)C)c1C(=O)OC,> 100,> 100,> 100,> 100,> 100,> 100,> 100,> 100,> 100,> 100,> 100
CCOC(=O)CCC(C(=O)OCC)n1nnc2cc(Nc3c(C)[n+]([O-])c4ccc(Cl)cc4[n+]3[O-])ccc21 (centres undefined),> 100,> 100,> 100,> 100,> 100,> 100,> 100,> 100,> 100,> 100,> 100
CCOC(=O)N1C(=S)C(C(=O)OC)(C(=O)OC)N=C1C,> 100,> 100,> 100,> 100,> 100,> 100,–,> 100,> 100,–,> 100
O=C(O)CCCc1ccc2c(c1)CC1(C2)Cc2ccc(CCCC(=O)O)cc2C1,> 100,> 100,> 100,> 100,> 100,> 100,> 100,> 100,> 100,–,> 100
CN(C)c1ccc(/C=C2\C[C@H]3[C@@H]4CCc5cc(O)ccc5[C@H]4CC[C@]3(C)C2=O)cc1,> 100,> 100,> 100,> 100,> 100,> 100,62.8,> 100,> 100,61,> 100
c1ccc(CNc2ncnc3n[nH]nc23)cc1,> 100,> 100,> 100,> 100,> 100,> 100,> 100,> 100,> 100,–,> 100
COc1cc(S(=O)(=O)N/N=C/c2cc(Br)c(O)c(OC)c2)c(OC)cc1NC(C)=O,> 100,> 100,56.5,> 100,> 100,> 100,41.8,> 100,> 100,–,> 100
O=C(NCc1cccnc1)C(=O)NCc1cccnc1,> 100,> 100,–,> 100,> 100,> 100,> 100,> 100,> 100,> 100,> 100
COC(=O)C1=C(C)NC2(C)OC(C)(O)C(C(C)=O)C12C(C)=O (centres undefined),> 100,> 100,> 100,> 100,> 100,> 100,57.5,89.2,> 100,> 100,85.8
CC1(C)CC2(C)OC(=N)C1(C#N)C2(C#N)C#N (centres undefined),20.3,38.1,–,37.7,20.2,29.3,24.5,10.5,27.2,33.8,> 100
O=C1C(=Cc2ccccc2[N+](=O)[O-])N=C(c2ccccc2)N1n1c(-c2ccccc2)nc2ccccc2c1=O,> 100,70.4,78,62.6,> 100,> 100,> 100,49.3,56.2,> 100,> 100

# Reference: PubChem BioAssay (NCI)
